Results published in paper PMC10303200 (ACS Central Science, 2023).
Several values for one entry are separate records, joined by “and”; a condition that tells them apart may be missing. Equal entries are not always repeated. Where two headings read alike, the source gives them in different places.

Key:
[1] = molecular target: T1, GNA (Galanthus nivalis, UniProt P30617); test: COIN-CaR-nMS; format: binding; details: purified glycan; ammonium acetate 200 mM, pH 6.9
T1 sequence (P30617 24-128 limits assumed): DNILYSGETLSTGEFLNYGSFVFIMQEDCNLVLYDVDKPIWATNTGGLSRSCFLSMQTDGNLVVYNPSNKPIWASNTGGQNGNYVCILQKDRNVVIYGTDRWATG

[2] = molecular target: T2, DC-SIGN CRD (Homo sapiens, UniProt Q9NNX6); test: direct nMS affinity measurement; format: binding; parameters: The carbohydrate recognition domain (CRD) of DC-SIGN (residues 250–404, MW 17 794 Da); made in house; details: pH 7.4
T2 sequence (Q9NNX6 250-404): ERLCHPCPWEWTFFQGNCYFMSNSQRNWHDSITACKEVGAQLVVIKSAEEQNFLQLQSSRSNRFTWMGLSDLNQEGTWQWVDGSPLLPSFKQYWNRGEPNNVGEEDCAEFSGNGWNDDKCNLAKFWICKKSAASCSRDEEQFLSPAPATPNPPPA

[3] = molecular target: T1, GNA; test: direct nMS (ESI-MS) measurement; format: binding; details: read-out: Kd by direct nMS (column Kd (Literature))
[4] = molecular target: T3, GAL-7 homodimer (Homo sapiens, UniProt P47929); test: direct nMS affinity measurement; format: binding; parameters: key: NB: No binding detected; details: glycans present as a mixture (G2, G5-G13); pH 6.9
T3 construct: made in house

[5] = molecular target: T2, DC-SIGN CRD; test: COIN-nMS affinity measurement; format: binding; parameters: The carbohydrate recognition domain (CRD) of DC-SIGN (residues 250–404, MW 17 794 Da); made in house
[6] = molecular target: T4, GAL-3C (Homo sapiens, UniProt P17931); test: direct nMS (ESI-MS) affinity measurement at known concentrations; format: binding; parameters: human Galectin-3 (GAL-3C, residues 107–250, molecular weight (MW) 16 327 Da); key: NB: No binding detected; details: glycans present as a mixture (G2, G5-G13); pH 6.9
[7] = molecular target: T3, GAL-7 homodimer; test: COIN-nMS affinity measurement; format: binding; parameters: key: NB: No binding detected; details: glycans present as a mixture (G2, G5-G13); average of eight measurements; pH 6.9
[8] = molecular target: T4, GAL-3C; test: COIN-nMS affinity measurement; format: binding; parameters: human Galectin-3 (GAL-3C, residues 107–250, molecular weight (MW) 16 327 Da); key: NB: No binding detected; details: glycans present as a mixture (G2, G5-G13); average of eight measurements; pH 6.9
[9] = molecular target: Siglec-7; details: ITC; cited from earlier work
[10] = molecular target: Sig7-Fc (Homo sapiens, UniProt Q9Y286); test: COIN-CaR-nMS; format: binding; parameters: Siglec 7-Fc (Sig7-Fc, residue 1–345, MW 150 kDa); His6 (C); made in house; host or cells: wild-type CHO cells
[11] = molecular target: SNA (Sambucus nigra, UniProt Q41358); test: biochemical; format: binding; details: apparent Kd by ITC (Literature)
[12] = molecular target: SNA (Sambucus nigra agglutinin) (Sambucus nigra, UniProt Q41358); test: biochemical; format: binding
[13] = molecular target: T5, CD22-Fc (Homo sapiens, UniProt P20273); test: COIN-CaR-nMS; format: binding; details: N-glycan natural libraries and G21; pH 6.9
T5 construct: His6 (C); made in house; host or cells: wild-type CHO cells
T5 sequence (P20273 20-332 limits assumed): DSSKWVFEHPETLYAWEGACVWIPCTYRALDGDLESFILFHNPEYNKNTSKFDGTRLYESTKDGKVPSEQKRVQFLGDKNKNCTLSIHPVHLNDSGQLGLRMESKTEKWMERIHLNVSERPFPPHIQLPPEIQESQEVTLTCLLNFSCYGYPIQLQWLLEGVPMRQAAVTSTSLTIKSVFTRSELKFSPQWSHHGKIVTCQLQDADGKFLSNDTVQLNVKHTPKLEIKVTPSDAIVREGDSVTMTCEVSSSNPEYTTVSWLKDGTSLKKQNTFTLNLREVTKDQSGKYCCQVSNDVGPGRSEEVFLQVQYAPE

[14] = molecular target: MAA; test: Isothermal titration calorimetry (ITC); format: binding, Maackia amurensis; details: ammonium acetate 200 mM, 25 °C, read-out: apparent Kd by ITC (Literature)
[15] = test system: MAA (Maackia amurensis agglutinin); test: COIN-CaR-nMS; format: binding
[16] = molecular target: SARS-CoV-2 RBD (Severe acute respiratory syndrome coronavirus 2, UniProt P0DTC2); test: biochemical; format: binding; details: pH 6.9
[17] = molecular target: T6, AAL (Aleuria Aurantia lectin) (Aleuria aurantia, UniProt P18891); test: COIN-CaR-nMS; format: binding; details: N-glycan natural libraries; pH 6.9
T6 construct: purchased Vector Laboratories (Newark, CA, USA)
T6 sequence (P18891 1-313): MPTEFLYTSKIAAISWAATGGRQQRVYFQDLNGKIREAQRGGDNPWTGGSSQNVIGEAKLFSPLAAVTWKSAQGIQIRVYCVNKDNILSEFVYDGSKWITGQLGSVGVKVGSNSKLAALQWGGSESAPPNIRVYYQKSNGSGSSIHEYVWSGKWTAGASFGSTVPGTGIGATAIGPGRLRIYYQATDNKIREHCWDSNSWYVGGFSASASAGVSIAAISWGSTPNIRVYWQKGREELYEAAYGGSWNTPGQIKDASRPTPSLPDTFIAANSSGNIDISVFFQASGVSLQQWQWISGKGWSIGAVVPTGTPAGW

[18] = molecular target: RCA-I (Ricinus communis agglutinin) (Ricinus communis, UniProt P06750); format: binding; details: pH 6.9; read-out: Kd (Native)
[19] = test system: SARS-CoV-2 (hCoV-19/Canada/ON-VIDO-01/2020), ACE2+ HEK293 cells; format: cell-based
[20] = test system: GFP-encoding SARS-CoV-2 pseudotyped virus, ACE2+ HEK293 cells; format: cell-based
[21] = molecular target: T4, GAL-3C; parameters: human Galectin-3 (GAL-3C, residues 107–250, molecular weight (MW) 16 327 Da); details: known Kd used to calculate glycan concentration; cited from earlier work
[22] = N-glycan natural libraries and purified oligosaccharides, pH 6.9, read-out: Kd

Sequence of SNA (Sambucus nigra agglutinin) (Q41358 309-570 limits assumed): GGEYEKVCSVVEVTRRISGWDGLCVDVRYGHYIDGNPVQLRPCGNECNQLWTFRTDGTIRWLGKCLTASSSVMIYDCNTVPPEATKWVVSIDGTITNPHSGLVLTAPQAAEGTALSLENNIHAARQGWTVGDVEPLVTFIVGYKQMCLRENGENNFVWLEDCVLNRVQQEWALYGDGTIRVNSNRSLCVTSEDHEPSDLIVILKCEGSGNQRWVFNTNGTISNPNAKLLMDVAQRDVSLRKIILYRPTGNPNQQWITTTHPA
Sequence of SNA (Sambucus nigra agglutinin) (Q41358 29-289 partner limits assumed): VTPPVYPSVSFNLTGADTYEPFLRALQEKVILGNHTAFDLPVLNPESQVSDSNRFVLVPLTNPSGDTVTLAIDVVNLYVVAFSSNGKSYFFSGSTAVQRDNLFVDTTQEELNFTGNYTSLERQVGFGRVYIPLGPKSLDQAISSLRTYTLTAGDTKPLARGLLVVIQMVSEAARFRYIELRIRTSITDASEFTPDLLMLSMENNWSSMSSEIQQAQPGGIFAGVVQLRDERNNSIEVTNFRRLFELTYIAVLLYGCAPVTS
T3 sequence (P47929 whole entry): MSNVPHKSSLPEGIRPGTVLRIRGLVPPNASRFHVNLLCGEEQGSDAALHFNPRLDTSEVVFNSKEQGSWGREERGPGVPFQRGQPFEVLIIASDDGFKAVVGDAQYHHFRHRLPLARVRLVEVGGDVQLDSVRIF
Sequence of Sig7-Fc (Q9Y286 19-345): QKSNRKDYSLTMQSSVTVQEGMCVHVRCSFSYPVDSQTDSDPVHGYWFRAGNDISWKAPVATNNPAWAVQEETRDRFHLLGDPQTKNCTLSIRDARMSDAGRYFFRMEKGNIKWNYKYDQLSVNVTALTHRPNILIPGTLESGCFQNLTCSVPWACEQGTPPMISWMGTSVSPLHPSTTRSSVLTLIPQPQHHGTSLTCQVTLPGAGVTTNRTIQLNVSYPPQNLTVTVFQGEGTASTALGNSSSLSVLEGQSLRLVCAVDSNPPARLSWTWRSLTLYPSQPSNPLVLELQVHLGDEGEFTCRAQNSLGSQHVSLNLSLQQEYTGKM
T4 sequence (P17931 107-250): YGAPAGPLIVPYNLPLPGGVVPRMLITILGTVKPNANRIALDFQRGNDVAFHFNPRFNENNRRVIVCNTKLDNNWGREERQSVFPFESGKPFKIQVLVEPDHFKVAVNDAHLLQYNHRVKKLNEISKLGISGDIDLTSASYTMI
Sequence of SNA (Q41358 309-570 limits assumed): as the sequence (Q41358 309-570 limits assumed) above
Sequence of SNA (Q41358 29-289 partner limits assumed): as the sequence (Q41358 29-289 partner limits assumed) above

Molecule: OC[C@H]1O[C@H](O[C@@H]2[C@@H](OC[C@H]3O[C@H](OC[C@H]4OC(O)[C@@H](O)[C@@H](O[C@H]5O[C@H](CO)[C@@H](O)[C@H](O)[C@@H]5O[C@H]5O[C@H](CO)[C@@H](O)[C@H](O)[C@@H]5O[C@H]5O[C@H](CO)[C@@H](O)[C@H](O)[C@@H]5O)[C@@H]4O)[C@@H](O)[C@@H](O[C@H]4O[C@H](CO)[C@@H](O)[C@H](O)[C@@H]4O[C@H]4O[C@H](CO)[C@@H](O)[C@H](O)[C@@H]4O)[C@@H]3O)O[C@H](CO)[C@@H](O)[C@@H]2O)[C@@H](O)[C@@H](O)[C@@H]1O (stereo partly drawn) [Glycan G5, α-D-Man-(1→2)-α-D-Man-(1→6)-[Man-(1→2)-α-D-Man-(1→3)]-α-D-Man-(1→6)-[Man-(1→2)-α-D-Man-(1→2)-α-D-Man-(1→3)]-α-D-Man]
- Kd [1]: 553.2 ± 1 µM
- Kd ([2]; glycans present as a mixture (G2, G5, G10, G14-G20)): 230 ± 20 µM
- Kd ([2]; individual glycan, ammonium acetate 200 mM, 2.5 mM calcium): 231 ± 17.3 µM
- Kd [3]: 774 µM
- Kd (nMS) [4]: NB
- Kd ([5]; global fit of data sets at 75, 100, 125 µM glycan, read-out: Kd (COIN-nMS, global fit)): 235 ± 12.6 µM
- Kd ([5]; glycan concentration 75 µM, pH 7.4, read-out: Kd (COIN-nMS, individual experiments)): 212 ± 2.2 µM
- Kd ([5]; glycan concentration 100 µM, pH 7.4, read-out: Kd (COIN-nMS, individual experiments)): 246.7 ± 1 µM
- Kd ([5]; glycan concentration 125 µM, pH 7.4, read-out: Kd (COIN-nMS, individual experiments)): 234 ± 1.5 µM
- Kd ([5]; glycans present as a mixture (G2, G5, G10, G14-G20), average of six measurements, pH 7.4, read-out: Kd (COIN-nMS)): 240 ± 40 µM
- Kd (nMS) [6]: NB
- Kd (COIN-nMS) [7]: NB and do not bind
- Kd (COIN-nMS) [8]: NB and do not bind

Molecule: CC(=O)N[C@H]1[C@H]([C@H](O)[C@H](O)CO)O[C@@](OC[C@H]2O[C@@H](O[C@H]3[C@H](O)[C@@H](O)C(O)O[C@@H]3CO)[C@H](O)[C@@H](O)[C@H]2O)(C(=O)O)C[C@@H]1O (stereo partly drawn) [Glycan G21, α-D-Neu5Ac-(2→6)-β-D-Gal-(1→4)-D-Glc]
- Kd [9]: 240 µM
- Kd ([10]; G21 0.5 μM and G29 30 μM, read-out: Kd (COIN-CaR-nMS), two ligands): 284 ± 70 µM
- Kd ([10]; G21 1.0 μM and G29 30 μM, read-out: Kd (COIN-CaR-nMS), two ligands): 239 ± 50 µM
- Kd ([10]; G21 5 μM and G29 30 μM, read-out: Kd (COIN-CaR-nMS), two ligands): 366 ± 10 µM
- Kd ([10]; G21 10 μM and G29 30 μM, read-out: Kd (COIN-CaR-nMS), two ligands): 249 ± 20 µM
- Kd [10, 22]: 236 µM
- Kd [11]: 1.98 µM and 2 µM
- fold weaker ligand than G23 [12]: 3 fold
- Kd ([12]; Kd (COIN-CaR-nMS)): 1.6 ± 0.4 µM
- Kd ([12]; Kd (COIN-CaR-nMS), two ligands): 2 µM and 1.5 µM and 3.3 µM and 1.7 µM and 1.6 µM and 1.8 µM
- Kd [13]: 40 µM

Molecule: CC(=O)N[C@H]1[C@H]([C@H](O)[C@H](O)CO)O[C@@](O[C@H]2[C@@H](O)[C@@H](CO)O[C@@H](O[C@H]3[C@H](O)[C@@H](O)C(O)O[C@@H]3CO)[C@@H]2O)(C(=O)O)C[C@@H]1O (stereo partly drawn) [Glycan G22, α-D-Neu5Ac-(2→3)-β-D-Gal-(1→4)-D-Glc]
- Kd [9]: 680 µM
- Kd [14]: 4 ± 2 µM

Molecule: CC(=O)N[C@H]1[C@H]([C@H](O)[C@H](O)CO)O[C@@](OC[C@H]2O[C@@H](O[C@H]3[C@H](O)[C@@H](NC(C)=O)C(O)O[C@@H]3CO)[C@H](O)[C@@H](O)[C@H]2O)(C(=O)O)C[C@@H]1O (stereo partly drawn) [Glycan G23, α-D-Neu5Ac-(2→6)-β-D-Gal-(1→4)-D-GlcNAc]
- Kd [10, 22]: 265 ± 66 µM
- Kd ([12]; Kd (COIN-CaR-nMS)): 0.6 µM
- Kd ([12]; Kd (COIN-CaR-nMS), two ligands): 700 nM and 900 nM and 400 nM (2×) and 300 nM and 600 nM
- Kd ([12]; pH 6.9, read-out: Kd, Native library (-NeuS)): 0.55 ± 0.16 µM
- fold weaker binding than G25 [15]: 2 fold
- Kd [16]: 76 ± 9 µM

Molecule: CC(=O)N[C@H]1[C@H](O[C@H]2[C@H](O)[C@@H](NC(C)=O)C(O)O[C@@H]2CO[C@@H]2O[C@@H](C)[C@@H](O)[C@@H](O)[C@@H]2O)O[C@H](CO)[C@@H](O[C@@H]2O[C@H](CO[C@H]3O[C@H](CO)[C@@H](O)[C@H](O)[C@@H]3O[C@@H]3O[C@H](CO)[C@@H](O)[C@H](O)[C@H]3NC(C)=O)[C@@H](O)[C@H](O[C@H]3O[C@H](CO)[C@@H](O)[C@H](O)[C@@H]3O[C@@H]3O[C@H](CO)[C@@H](O)[C@H](O)[C@H]3NC(C)=O)[C@@H]2O)[C@@H]1O (stereo partly shown) [HexNAc4Hex3Fuc1]
- Kd [17]: 2.6 ± 0.57 µM
- Kd [18]: 1.73 ± 0.08 µM

Molecule: O=C1N[C@@H]2[C@@H](O)[C@@H](O)[C@H](O)[C@@H](CO)N2C1=O [kifunensine]
- infection by authentic virus (viral titers, PFU) [19]: concentration-dependent decrease in infection
- infection by pseudotyped virus (%GFP+ cells) [20]: decreased significantly

Molecule: α-D-GalNAc(1→3)-[α-L-Fuc(1→2)]-β-Gal(1→4)-D-GlcNAc [Glycan G24]
- Kd [21]: 7.2 ± 0.4 µM
